Experimental findings from PubChem BioAssay (NCI) are described below.

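Five compound concentrations were applied to cells in 96-well plates for 48 hours; endpoints were derived by simple linear interpolation of the resulting dose-response curve. TGI denotes the concentration required for complete inhibition of growth.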

Some test systems named below: SN12C renal; UACC-257 melanoma; A549 NSCLC; TK-10 renal; 786-0 renal; UO-31 renal; NCI-H23 lung; HOP-92 NSCLC; RXF 393 renal; NCI-H226 lung.
What all share (experiment): NCI-60 cell line screen, 48 h

`C/C(N=NS(=O)(=O)c1c(C)cc(C)cc1C)=C1\C=CC=CN1O`: the TGI in the experiment on SN12C renal, in the experiment on UACC-257 melanoma, in the experiment with A549 NSCLC, with TK-10 renal, in the experiment with 786-0 renal and in the experiment with UO-31 renal was greater than 100 µM throughout. Also, the TGI with NCI-H23 lung and in the experiment with HOP-92 NSCLC was greater than 100 µM throughout.

With `CC(C)=CCNc1ncnc2c1ncn2CCC(=O)O`, the TGI in the experiment on RXF 393 renal, in the experiment with SN12C renal, in the experiment on A549 NSCLC, in the experiment on TK-10 renal, with NCI-H226 lung and in the experiment with 786-0 renal was greater than 100 µM throughout. Also, the TGI in the experiment on UO-31 renal, with NCI-H23 lung and with HOP-92 NSCLC was greater than 100 µM each time.

Take `O=Cn1c2ccccc2c2ccccc21`: the TGI in the experiment on RXF 393 renal, with SN12C renal, in the experiment on UACC-257 melanoma, in the experiment with A549 NSCLC, in the experiment with TK-10 renal and in the experiment on 786-0 renal was greater than 100 µM throughout. For the same molecule, the TGI with UO-31 renal, in the experiment on NCI-H23 lung and with HOP-92 NSCLC was greater than 100 µM in each case.

On to `CN1COCN=C1NC#N`, for which the TGI with SN12C renal, in the experiment on UACC-257 melanoma, in the experiment with A549 NSCLC, in the experiment on NCI-H226 lung and in the experiment with UO-31 renal was greater than 100 µM each time.

For the molecule `NCCCNCCSP(=O)(O)O`, the TGI in the experiment with RXF 393 renal, in the experiment on SN12C renal, in the experiment on UACC-257 melanoma, in the experiment with A549 NSCLC, in the experiment on NCI-H226 lung and in the experiment on UO-31 renal was greater than 750 µM in each case. The TGI in the experiment with NCI-H23 lung and in the experiment with HOP-92 NSCLC was greater than 750 µM throughout.

Take `C/C(=N\Nc1nc2cc(F)ccc2s1)c1ccccn1`: the TGI is 6.65 µM in the experiment with RXF 393 renal; greater than 43.8 µM with SN12C renal; greater than 24.4 µM in the experiment with UACC-257 melanoma; greater than 39 µM in the experiment with 786-0 renal; 0.314 µM with UO-31 renal; 2.23 µM in the experiment on NCI-H23 lung. In the experiment with HOP-92 NSCLC, this molecule displayed a TGI of 11.5 µM.

Regarding `Cc1ccc(N2Cc3c(ccc4ccccc34)OP2(=S)N2CCCC2)cc1` (stereo not given), the TGI with RXF 393 renal, with SN12C renal, in the experiment on UACC-257 melanoma, in the experiment on A549 NSCLC, with NCI-H226 lung and with UO-31 renal was greater than 100 µM each time. In addition, the TGI in the experiment with NCI-H23 lung and with HOP-92 NSCLC was greater than 100 µM in each case.

As to `O=c1cc(-c2ccccc2)oc2cc(OCCCCCCCCCCOc3ccc4c(=O)cc(-c5ccccc5)oc4c3)ccc12`, the TGI with SN12C renal, in the experiment on UACC-257 melanoma, with A549 NSCLC, in the experiment with 786-0 renal, in the experiment on NCI-H23 lung and in the experiment on HOP-92 NSCLC was greater than 100 µM throughout.

Regarding `Cc1cc2ccccc2oc(=O)/c1=N\Nc1ccccc1`, the TGI is 88.4 µM with RXF 393 renal; greater than 100 µM with SN12C renal; greater than 100 µM in the experiment on UACC-257 melanoma; greater than 100 µM in the experiment with A549 NSCLC; greater than 100 µM in the experiment with NCI-H226 lung; 97 µM in the experiment on 786-0 renal. Besides, the TGI with UO-31 renal, in the experiment on NCI-H23 lung and in the experiment on HOP-92 NSCLC was greater than 100 µM in each case.

In the case of `C=CC(C)(C)/C(=C\CO[Si](C(C)C)(C(C)C)C(C)C)C(=O)N(C)c1ccccc1I`, the TGI in the experiment on RXF 393 renal amounted to 24.5 µM; in the experiment on SN12C renal, 29.7 µM; with UACC-257 melanoma it was 28.7 µM; in the experiment on A549 NSCLC it was 23.9 µM; in the experiment with TK-10 renal, 26.2 µM; with 786-0 renal, 27.6 µM. In addition, the TGI turned out to be 25.9 µM in the experiment on UO-31 renal, 23.6 µM in the experiment on NCI-H23 lung and 22.2 µM with HOP-92 NSCLC.

Regarding `Cc1cccc(NC(=S)Nc2cccc(Cl)c2)n1`, the TGI with RXF 393 renal, in the experiment on SN12C renal, in the experiment with UACC-257 melanoma, with A549 NSCLC, in the experiment with TK-10 renal and in the experiment on NCI-H226 lung was greater than 100 µM each time. Moreover, the TGI with 786-0 renal, with UO-31 renal and with NCI-H23 lung was greater than 100 µM in each case.

Turning to `O=C1OC2(CCCCC2)C(Oc2ccc(Cl)cc2)=C1F`, the TGI was greater than 100 µM with RXF 393 renal; greater than 100 µM in the experiment with SN12C renal; 66.8 µM in the experiment on UACC-257 melanoma; greater than 100 µM in the experiment with A549 NSCLC; greater than 100 µM in the experiment on TK-10 renal; greater than 100 µM in the experiment with 786-0 renal. Besides, the TGI in the experiment with UO-31 renal was greater than 100 µM; with HOP-92 NSCLC, 82.5 µM.

As to `CCC1OC2(C)CC(C#N)(C#N)C1(C#N)C(=N)O2` (stereo not given), the TGI in the experiment with RXF 393 renal, in the experiment with SN12C renal, with UACC-257 melanoma, with A549 NSCLC, in the experiment with TK-10 renal and in the experiment with 786-0 renal was greater than 100 µM each time. In addition, the TGI with UO-31 renal, in the experiment on NCI-H23 lung and in the experiment with HOP-92 NSCLC was greater than 100 µM in each case.

Consider `CC(C)(C)N=C1C(=O)C2(C)CCC1C2(C)C` (stereo not given), for which the TGI in the experiment on RXF 393 renal, with UACC-257 melanoma, in the experiment on A549 NSCLC, with TK-10 renal, in the experiment on NCI-H226 lung and in the experiment on 786-0 renal was greater than 100 µM each time. Besides, the TGI in the experiment on UO-31 renal and in the experiment on NCI-H23 lung was greater than 100 µM in each case.

`Clc1cc(Cl)nc(Nc2ccc3c(c2)CCC3)n1`: the TGI with SN12C renal, in the experiment with UACC-257 melanoma, in the experiment on A549 NSCLC, with TK-10 renal, with NCI-H226 lung and in the experiment with 786-0 renal was greater than 100 µM throughout. The TGI with UO-31 renal, with NCI-H23 lung and with HOP-92 NSCLC was greater than 100 µM throughout.

For the molecule `COC1CCC(CO)OO1` (stereo not given), the TGI in the experiment on RXF 393 renal, with UACC-257 melanoma, with UO-31 renal, in the experiment on NCI-H23 lung and with HOP-92 NSCLC was greater than 100 µM in each case.

With `COc1ccc(/C=C/C(=O)c2cc(CN(C)C)c(O)c(CN(C)C)c2)cc1`, the TGI in the experiment with RXF 393 renal was greater than 100 µM; in the experiment on SN12C renal, greater than 100 µM; with UACC-257 melanoma, 38.8 µM; with A549 NSCLC it was greater than 100 µM; with TK-10 renal it was greater than 100 µM; with NCI-H226 lung it was greater than 100 µM. Also, the values for the TGI with 786-0 renal, in the experiment with UO-31 renal and with NCI-H23 lung were greater than 100 µM, 86.9 µM and greater than 100 µM, respectively.
